Laboratory results from US20100010053A1, “COMPOUNDS” (priority 2008, published 2010).

What was measured:
[1] = target: T1, human S1P3 receptor (EDG3) (Homo sapiens, UniProt Q99500); assay: S1P3 GTPγS assay or S1P3 GeneBlazer assay (at least one of the above assays); format: cell-based; conditions: given as EC50
T1 construct: expressed in transfected cells; host or cells: rat basophilic leukaemia cells RBL-2H3 (membranes, GTPγS assay) or GeneBLAzer EDG3-Ga15-NFAT-bla HEK 293T cells
Procedure: S1P3 membranes from rat basophilic leukaemia cells (RBL-2H3) (1.5 μg/well) were adhered to WGA-coated SPA beads (0.125 mg/well) in assay buffer (HEPES 20 mM, MgCl2 3 mM, NaCl 100 mM and pH adjusted to 7.4 using KOH 5M), GDP 10 μM FAC and saponin 90 μg/ml FAC was also added).
(§1) After 30 minutes pre-coupling on ice the bead and membrane suspension was dispensed into a white Greiner polypropylene LV384-well plate (5 μl/well), containing 0.1 μl of the compound. 5 μl/well [^35S]-GTPγS (0.5 nM final radioligand conc) made up in assay buffer was then added to agonist plates. The final assay cocktail (10.1 μl) was centrifuged at 1000 rpm for 5 minutes then read immediately on a Viewlux reader.
All test compounds were dissolved in DMSO at a concentration of 10 mM and were prepared in 100% DMSO using a 1 in 4 dilution step to provide 11 point dose response curves. The dilutions were transferred to the assay plates ensuring that the DMSO concentration was constant across the plate for all assays. […]
After incubation at 37° C., 5% CO2 for 5 h, 25 μl of 6× substrate mixture (6 μl Solution A (1 mg LiveBLAzer™-FRET B/G Substrate (CCF4-AM) in 912 μl DMSO) plus 60 μl Solution B plus 934 μl Solution C) was added to each well and incubate at room temperature for 2 h in dark. The plate was finally read on EnVision for two emission channels (460 nm and 530 nm). […]

[2] = target: T2, human S1P1 receptor (EDG1) (Homo sapiens, UniProt P21453); assay: S1P1 GTPγS assay or S1P1 Tango assay (at least one of the above assays); format: cell-based; conditions: read-out: pEC50 in at least one of the above assays (converted)
T2 construct: TEV protease site + Gal4-VP16 transcription factor (only in the Tango assay cells; not described for the GTPγS membranes); expressed in transfected cells; host or cells: rat hepatoma cells (membranes, GTPγS assay) or Tango EDG1-bla U2OS cells (Tango assay)
Procedure: For membrane preparations all steps were performed at 4° C. Rat hepatoma cells stably expressing the human S1P1 receptor or Rat Basophilic Leukaemia cells (RBL) stably expressing human S1P3 receptor were grown to 80% confluency before being harvested into 10 ml Phospho-Buffered Saline (PBS) and centrifuged at 1200 rpm for 5 minutes. After removal of the supernatant, the pellet was re-suspended and cells were homogenised within a glass Waring blender for 2 bursts of 15 secs in 200 mls of buffer (50 mM HEPES, 1 mM leupeptin, 25 μg/ml bacitracin, 1 mM EDTA, 1 mM PMSF, 2 μM pepstatin A). The blender was plunged into ice for 5 mins after the first burst and 10-40 mins after the final burst to allow foam to dissipate. The material was then spun at 500 g for 20 mins and the supernatant spun for 36 mins at 48,000 g. The pellet was resuspended in the same buffer as above but without PMSF and pepstatin A. The material was then forced through a 0.6 mm needle, made up to the required volume, (usually ×4 the volume of the original cell pellet), aliquoted and stored frozen at −80° C. S1P1 GTPγS assay Human S1P1 rat hepatoma membranes (1.5 μg/well) were adhered to a wheatgerm agglutinin (WGA)-coated scintillation proximity assay (SPA) beads (0.125 mg/well) in assay buffer (HEPES 20 mM, MgCl2 10 mM, NaCl 100 mM and pH adjusted to 7.4 using KOH 5M, GDP 10 μM FAC (final assay concentration) and saponin 90 μg/ml FAC was also added).
as §1, with “μl) was then centrifuged at” for “μl) was centrifuged at”
All test compounds were dissolved in DMSO at a concentration of 10 mM and were prepared in 100% DMSO using a 1 in 4 dilution step to provide 11 point dose response curves. The dilutions were transferred to the assay plates ensuring that the DMSO concentration was constant across the plate for all assays.
All data was normalized to the mean of 16 high and 16 low control wells on each plate. A four parameter curve fit was then applied.
Recombinant EDG1-bla/U2OS cells (contain the human Endothelial Differentiation Gene 1 (EDG1) linked to a TEV protease site and a Gal4-VP16 transcription factor stably integrated into the Tango GPCR-bla U2OS parental cell line) were suspended in assay medium (Invitrogen Freestyle Expression Medium) at a density of 312, 500 cells/ml. Add 100 μl/well of the assay medium to the cell-free control wells (column 12) and 100 μl/well of the cell suspension to the test compound wells (row 2-8, column 1-10), the unstimulated control wells (DMSO) (column 11), and stimulated control wells (S1P) (row 1, column 1-10) in a Corning black-well, clear bottom 96-well plate. Cells were incubated at 37° C., 5% CO2 for 44-48 h. Add 25 μl of 5× stock solution of test compounds in assay medium with 0.5% DMSO to the test compound wells, 25 μl of 5× stock solution of agonist (S1P) in assay medium with 0.5% DMSO to the stimulated compound wells, and 25 μl of 5× stock solution of 0.5% DMSO in assay medium to the unstimulated control and cell-free control wells.
After incubation at 37° C., 5% CO2 for 5 h, 25 μl of 6× substrate mixture (6 μl Solution A (1 mg LiveBLAzer™-FRET B/G substrate (CCF4-AM) in 912 μl DMSO) plus 60 μl Solution B plus 934 μl Solution C) was added to each well and incubate at room temperature for 2 h in dark. The plate was finally read on EnVision for two emission channels (460 nm and 530 nm).
All test compounds were dissolved in DMSO at a concentration of 10 mM and were prepared in 100% DMSO using a 1 in 5 dilution step to provide 10 point dose response curves. […]

[3] = clinical studies, first 24 hours of treatment; cited from earlier work
circulating lymphocytes = conditions: animals and man; cited from earlier work

T2 sequence (P21453 whole entry, the tested form may be a part): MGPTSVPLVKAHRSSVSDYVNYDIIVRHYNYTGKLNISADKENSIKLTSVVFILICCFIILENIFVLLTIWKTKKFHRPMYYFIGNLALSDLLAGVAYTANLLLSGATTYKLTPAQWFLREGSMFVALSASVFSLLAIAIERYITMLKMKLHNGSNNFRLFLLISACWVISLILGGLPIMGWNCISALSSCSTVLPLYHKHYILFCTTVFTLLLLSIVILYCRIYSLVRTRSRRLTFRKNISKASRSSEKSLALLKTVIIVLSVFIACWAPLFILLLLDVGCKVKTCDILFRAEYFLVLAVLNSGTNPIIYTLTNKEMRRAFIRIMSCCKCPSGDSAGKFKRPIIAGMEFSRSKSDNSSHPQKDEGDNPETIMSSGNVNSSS
T1 sequence (Q99500 whole entry): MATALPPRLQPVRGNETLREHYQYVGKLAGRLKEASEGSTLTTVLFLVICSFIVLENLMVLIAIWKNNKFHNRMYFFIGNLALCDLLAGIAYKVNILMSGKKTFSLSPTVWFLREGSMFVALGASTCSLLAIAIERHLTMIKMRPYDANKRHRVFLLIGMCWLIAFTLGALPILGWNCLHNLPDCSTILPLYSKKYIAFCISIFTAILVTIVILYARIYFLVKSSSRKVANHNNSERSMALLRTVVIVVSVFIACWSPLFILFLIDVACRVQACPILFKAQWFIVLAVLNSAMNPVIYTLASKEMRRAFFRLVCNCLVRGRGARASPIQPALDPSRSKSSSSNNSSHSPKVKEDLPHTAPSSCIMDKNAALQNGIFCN

Row | Compound | EC50 [2] | further results
1 | CC(C)Oc1ccc(-c2nc(-c3cccc4c([C@H]5C[C@H]5C(=O)O)cn(C)c34)no2)cc1Cl (relative stereo) [Example 40, cis-2-[7-(5-{3-chloro-4-[(1-methylethyl)oxy]phenyl}-1,2,4-oxadiazol-3-yl)-1-methyl-1H-indol-3-yl]cyclopropanecarboxylic acid] | – | EC50 [1]: 316 nM
2 | CC(C)Oc1ccc(-c2nc(-c3cccc4c(CCOCC(=O)O)cn(C)c34)no2)cc1Cl [Example 79, ({2-[7-(5-{3-chloro-4-[(1-methylethyl)oxy]phenyl}-1,2,4-oxadiazol-3-yl)-1-methyl-1H-indol-3-yl]ethyl}oxy)acetic acid] | < 10 nM | –
3 | CC(C)Oc1ccc(-c2nc(-c3cccc4c(CCCOCC(=O)O)cn(C)c34)no2)cc1Cl [Example 80, ({3-[7-(5-{3-chloro-4-[(1-methylethyl)oxy]phenyl}-1,2,4-oxadiazol-3-yl)-1-methyl-1H-indol-3-yl]propyl}oxy)acetic acid] | < 10 nM | –
4 | CC(C)Oc1ccc(-c2nc(-c3ccc4[nH]c(CCC(=O)O)cc4c3)no2)cc1C#N [Example 89, 3-[5-(5-{3-cyano-4-[(1-methylethyl)oxy]phenyl}-1,2,4-oxadiazol-3-yl)-1H-indol-2-yl]propanoic acid] | < 10 nM | –
5 | CC(C)Oc1ncc(-c2nc(-c3cc(F)cc4c(CCC(=O)O)c[nH]c34)no2)cc1Cl [Example 101, 3-[7-(5-{5-Chloro-6-[(1-methylethyl)oxy]-3-pyridinyl}-1,2,4-oxadiazol-3-yl)-5-fluoro-1H-indol-3-yl]propanoic acid] | < 10 nM | –
6 | CC(C)Oc1ncc(-c2nc(-c3cc(F)cc4c(CCC(=O)O)cn(C)c34)no2)cc1Cl [Example 102, 3-[7-(5-{5-Chloro-6-[(1-methylethyl)oxy]-3-pyridinyl}-1,2,4-oxadiazol-3-yl)-5-fluoro-1-methyl-1H-indol-3-yl]propanoic acid] | < 1 nM | –
7 | CC(C)Oc1ccc(-c2nc(-c3c(F)ccc4c(CCC(=O)O)c[nH]c34)no2)cc1Cl [Example 103, 3-[7-(5-{3-Chloro-4-[(1-methylethyl)oxy]phenyl}-1,2,4-oxadiazol-3-yl)-6-fluoro-1H-indol-3-yl]propanoic acid] | < 1 nM | –
8 | CC(C)Oc1ccc(-c2nc(-c3c(F)ccc4c(CCC(=O)O)cn(C)c34)no2)cc1Cl [Example 104, 3-[7-(5-{3-Chloro-4-[(1-methylethyl)oxy]phenyl}-1,2,4-oxadiazol-3-yl)-6-fluoro-1-methyl-1H-indol-3-yl]propanoic acid] | < 10 nM | –
9 | CC(C)Oc1ccc(-c2nc(-c3c(F)ccc4c(CCC(=O)O)c[nH]c34)no2)cc1C#N [Example 105, 3-[7-(5-{3-Cyano-4-[(1-methylethyl)oxy]phenyl}-1,2,4-oxadiazol-3-yl)-6-fluoro-1H-indol-3-yl]propanoic acid] | < 1 nM | –
10 | CC(C)Oc1ccc(-c2nc(-c3c(F)ccc4c(CCC(=O)O)cn(C)c34)no2)cc1C#N [Example 106, 3-[7-(5-{3-Cyano-4-[(1-methylethyl)oxy]phenyl}-1,2,4-oxadiazol-3-yl)-6-fluoro-1-methyl-1H-indol-3-yl]propanoic acid] | < 10 nM | –
11 | CC(C)Oc1ccc(-c2nc(-c3cc4[nH]cc(CCC(=O)O)c4cc3F)no2)cc1Cl [Example 109, 3-[6-(5-{3-Chloro-4-[(1-methylethyl)oxy]phenyl}-1,2,4-oxadiazol-3-yl)-5-fluoro-1H-indol-3-yl]propanoic acid] | < 1 nM | –
12 | CC(C)Oc1ccc(-c2nc(-c3cc4[nH]cc(CCC(=O)O)c4cc3F)no2)cc1C#N [Example 110, 3-[6-(5-{3-Cyano-4-[(1-methylethyl)oxy]phenyl}-1,2,4-oxadiazol-3-yl)-5-fluoro-1H-indol-3-yl]propanoic acid] | < 1 nM | –
13 | CC(C)Oc1ncc(-c2nc(-c3cc4[nH]cc(CCC(=O)O)c4cc3F)no2)cc1Cl [Example 111, 3-[6-(5-{5-Chloro-6-[(1-methylethyl)oxy]-3-pyridinyl}-1,2,4-oxadiazol-3-yl)-5-fluoro-1H-indol-3-yl]propanoic acid] | < 10 nM | –
14 | CCCCCCCCc1ccc(CCC(N)(CO)CO)cc1 [FTY720] | – | bradycardia [3]: results in bradycardia; effect on circulating lymphocytes (circulating lymphocytes): reduce circulating lymphocytes
